The values that follow are results of earlier work, collected in patent publication US7033983B2, “Detergent compositions” (Unilever Home and Personal Care USA a division of Conopco, …, priority 2002, dated 2006).

For this series the following is noted: highly water-soluble materials; saturated solution in 100 g deionised water at 20° C.

On to `NC(N)=O` [Urea], for which the “Water Solubility” value was over 100 g/100 g.
